Counter-ions that a name gives are not always drawn.
Columns and labels:
HDAC = details: cited from earlier work
PDGFR = details: cited from earlier work
[1] = tested on: lymphoma cell lines (2-5 cell lines); assay: Synergy of compound (1-1) with other agents, MTT, Chou-Talalay combination index; type: cell-based; details: 72 h; for combination effect with compound (1-1): Chou-Talalay; for Chou-Talalay combination index (CI), median / Chou-Talalay combination index (CI), range: in combination with compound (1-1)
PI3K/mTOR = details: cited from earlier work
[2] = tested on: pAktS473, pGSK3βS9, pS6, pMAPK, pAktT308; details: cited from earlier work
FKBP12 = FKBP12 (Homo sapiens, UniProt P62942); details: cited from earlier work
Chain of FKBP12 (P62942 whole entry, species assumed): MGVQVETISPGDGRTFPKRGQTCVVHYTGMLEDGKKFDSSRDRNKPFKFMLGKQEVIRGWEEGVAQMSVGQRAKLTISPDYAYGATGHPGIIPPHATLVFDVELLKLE

[3] = tested on: Akt phosphorylation on S473; details: cited from earlier work
[4] = tested on: Akt phosphorylation on T308; details: cited from earlier work
JAK-1 = JAK-1 (Homo sapiens, UniProt P23458); details: cited from earlier work
SYK = SYK (Homo sapiens, UniProt P43405); details: cited from earlier work
IR kinase = IR kinase (Homo sapiens, UniProt P06213); details: cited from earlier work
JAK-2 = JAK-2 (Homo sapiens, UniProt O60674); details: cited from earlier work
Chain of JAK-2 (O60674 whole entry, species assumed): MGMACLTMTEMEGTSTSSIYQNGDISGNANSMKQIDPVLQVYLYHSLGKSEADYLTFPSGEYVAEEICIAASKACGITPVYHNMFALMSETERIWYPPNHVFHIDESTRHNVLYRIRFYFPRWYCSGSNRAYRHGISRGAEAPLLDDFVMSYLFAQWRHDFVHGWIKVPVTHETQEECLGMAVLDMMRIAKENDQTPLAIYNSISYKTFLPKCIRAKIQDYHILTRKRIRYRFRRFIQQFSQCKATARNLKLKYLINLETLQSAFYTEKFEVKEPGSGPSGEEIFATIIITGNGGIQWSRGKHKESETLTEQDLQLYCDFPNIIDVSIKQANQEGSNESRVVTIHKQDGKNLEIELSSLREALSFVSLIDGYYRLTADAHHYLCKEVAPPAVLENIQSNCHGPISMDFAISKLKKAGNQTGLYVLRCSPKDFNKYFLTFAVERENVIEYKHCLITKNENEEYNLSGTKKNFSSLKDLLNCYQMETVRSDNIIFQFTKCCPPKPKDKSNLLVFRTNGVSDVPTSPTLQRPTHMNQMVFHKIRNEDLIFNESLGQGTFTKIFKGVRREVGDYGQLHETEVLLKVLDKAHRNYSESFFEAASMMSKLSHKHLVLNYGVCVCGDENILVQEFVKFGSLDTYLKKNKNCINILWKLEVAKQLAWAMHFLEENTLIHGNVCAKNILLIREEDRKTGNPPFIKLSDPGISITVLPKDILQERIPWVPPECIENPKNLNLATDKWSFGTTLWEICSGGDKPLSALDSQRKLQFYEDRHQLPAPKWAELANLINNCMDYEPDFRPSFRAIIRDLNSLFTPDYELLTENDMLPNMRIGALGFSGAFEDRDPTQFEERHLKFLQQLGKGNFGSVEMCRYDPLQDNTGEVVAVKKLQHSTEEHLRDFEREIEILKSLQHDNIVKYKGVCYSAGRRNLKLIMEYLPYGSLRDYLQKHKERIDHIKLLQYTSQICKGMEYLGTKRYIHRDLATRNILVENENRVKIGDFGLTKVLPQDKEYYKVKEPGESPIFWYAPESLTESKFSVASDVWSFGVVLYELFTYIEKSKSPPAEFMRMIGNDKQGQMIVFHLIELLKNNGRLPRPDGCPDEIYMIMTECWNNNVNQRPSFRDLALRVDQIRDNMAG

Hck = Hck (Homo sapiens, UniProt P08631); details: cited from earlier work
Chain of Hck (P08631 whole entry, species assumed): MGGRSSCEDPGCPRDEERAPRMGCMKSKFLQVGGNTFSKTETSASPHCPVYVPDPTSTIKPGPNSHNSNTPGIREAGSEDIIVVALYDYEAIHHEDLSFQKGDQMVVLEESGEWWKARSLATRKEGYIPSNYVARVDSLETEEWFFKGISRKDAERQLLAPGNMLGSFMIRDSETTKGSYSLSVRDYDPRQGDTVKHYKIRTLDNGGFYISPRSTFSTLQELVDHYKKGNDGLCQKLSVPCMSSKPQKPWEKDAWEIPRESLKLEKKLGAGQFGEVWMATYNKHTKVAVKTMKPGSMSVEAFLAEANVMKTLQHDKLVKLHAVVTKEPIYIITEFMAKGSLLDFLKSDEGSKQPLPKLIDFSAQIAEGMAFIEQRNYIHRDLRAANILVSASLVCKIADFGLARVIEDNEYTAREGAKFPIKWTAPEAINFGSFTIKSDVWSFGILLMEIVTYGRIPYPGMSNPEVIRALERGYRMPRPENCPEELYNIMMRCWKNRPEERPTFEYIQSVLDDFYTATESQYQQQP

JAK-3 = JAK-3 (Homo sapiens, UniProt P52333); details: cited from earlier work
Chain of JAK-3 (P52333 whole entry, species assumed): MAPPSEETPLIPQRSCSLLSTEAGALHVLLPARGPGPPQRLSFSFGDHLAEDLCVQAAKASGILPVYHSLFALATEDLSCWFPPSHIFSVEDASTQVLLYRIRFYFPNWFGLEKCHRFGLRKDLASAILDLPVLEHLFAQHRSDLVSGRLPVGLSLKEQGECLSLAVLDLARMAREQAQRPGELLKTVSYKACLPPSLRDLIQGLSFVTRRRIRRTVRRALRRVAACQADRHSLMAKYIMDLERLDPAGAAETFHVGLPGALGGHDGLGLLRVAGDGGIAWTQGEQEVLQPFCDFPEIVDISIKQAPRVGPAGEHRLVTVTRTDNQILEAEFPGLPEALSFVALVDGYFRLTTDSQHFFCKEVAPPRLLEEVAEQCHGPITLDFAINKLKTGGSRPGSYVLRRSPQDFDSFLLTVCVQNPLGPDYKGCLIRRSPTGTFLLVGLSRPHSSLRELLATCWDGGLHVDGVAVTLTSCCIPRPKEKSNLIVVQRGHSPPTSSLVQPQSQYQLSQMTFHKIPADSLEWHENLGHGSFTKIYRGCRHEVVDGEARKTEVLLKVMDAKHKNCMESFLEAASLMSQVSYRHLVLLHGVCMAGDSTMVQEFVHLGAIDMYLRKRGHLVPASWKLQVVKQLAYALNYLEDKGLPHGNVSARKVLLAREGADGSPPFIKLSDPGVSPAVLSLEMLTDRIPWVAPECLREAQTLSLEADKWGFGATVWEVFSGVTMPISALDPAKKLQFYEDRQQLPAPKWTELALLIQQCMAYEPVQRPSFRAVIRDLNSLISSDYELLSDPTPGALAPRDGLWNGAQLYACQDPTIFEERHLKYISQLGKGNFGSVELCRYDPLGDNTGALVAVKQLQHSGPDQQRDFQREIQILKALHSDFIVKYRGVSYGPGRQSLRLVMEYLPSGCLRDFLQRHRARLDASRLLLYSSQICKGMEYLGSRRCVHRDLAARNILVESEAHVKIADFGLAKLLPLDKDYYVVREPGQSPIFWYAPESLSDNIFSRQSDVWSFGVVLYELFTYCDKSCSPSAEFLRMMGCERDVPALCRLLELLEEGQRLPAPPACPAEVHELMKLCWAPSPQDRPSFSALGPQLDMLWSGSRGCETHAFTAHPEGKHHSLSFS

EGFR kinase = EGFR kinase (Homo sapiens, UniProt P00533); details: cited from earlier work
PI3Kγ (p110γ) = PI3Kγ (p110γ) (Homo sapiens, UniProt P48736); details: cited from earlier work
PI3Kβ (p110β) = PI3Kβ (p110β) (Homo sapiens, UniProt P42338); details: cited from earlier work
Chain of PI3Kβ (p110β) (P42338 whole entry, species assumed): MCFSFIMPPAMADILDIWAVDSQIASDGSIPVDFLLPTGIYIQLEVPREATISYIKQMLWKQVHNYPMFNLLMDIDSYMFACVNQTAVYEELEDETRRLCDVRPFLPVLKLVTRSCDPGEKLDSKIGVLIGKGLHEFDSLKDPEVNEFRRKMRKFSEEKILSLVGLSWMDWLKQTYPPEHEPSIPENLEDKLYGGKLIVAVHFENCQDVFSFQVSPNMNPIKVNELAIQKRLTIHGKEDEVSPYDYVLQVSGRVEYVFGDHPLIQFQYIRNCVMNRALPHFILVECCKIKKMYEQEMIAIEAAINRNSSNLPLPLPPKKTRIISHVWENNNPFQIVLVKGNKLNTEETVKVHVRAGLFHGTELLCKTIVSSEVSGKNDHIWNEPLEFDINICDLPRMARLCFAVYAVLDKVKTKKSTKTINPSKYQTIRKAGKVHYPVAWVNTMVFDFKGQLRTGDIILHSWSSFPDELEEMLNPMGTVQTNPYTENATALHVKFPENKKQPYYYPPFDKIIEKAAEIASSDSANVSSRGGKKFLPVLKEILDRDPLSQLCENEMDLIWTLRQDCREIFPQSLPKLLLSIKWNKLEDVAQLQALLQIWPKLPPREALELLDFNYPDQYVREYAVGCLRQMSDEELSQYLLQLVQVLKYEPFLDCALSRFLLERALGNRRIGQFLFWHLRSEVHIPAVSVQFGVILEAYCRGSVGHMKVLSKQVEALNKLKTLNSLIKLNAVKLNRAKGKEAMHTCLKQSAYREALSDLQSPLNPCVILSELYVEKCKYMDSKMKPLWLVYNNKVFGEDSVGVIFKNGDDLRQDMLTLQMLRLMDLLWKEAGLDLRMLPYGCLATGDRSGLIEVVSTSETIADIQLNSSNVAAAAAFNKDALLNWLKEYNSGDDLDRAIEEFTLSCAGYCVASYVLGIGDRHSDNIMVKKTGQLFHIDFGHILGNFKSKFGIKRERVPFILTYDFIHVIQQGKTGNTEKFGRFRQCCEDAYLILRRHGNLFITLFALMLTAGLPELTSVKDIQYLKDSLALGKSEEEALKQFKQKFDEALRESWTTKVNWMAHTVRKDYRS
Chain of PI3Kβ (p110β) (P27986 whole entry partner, species assumed): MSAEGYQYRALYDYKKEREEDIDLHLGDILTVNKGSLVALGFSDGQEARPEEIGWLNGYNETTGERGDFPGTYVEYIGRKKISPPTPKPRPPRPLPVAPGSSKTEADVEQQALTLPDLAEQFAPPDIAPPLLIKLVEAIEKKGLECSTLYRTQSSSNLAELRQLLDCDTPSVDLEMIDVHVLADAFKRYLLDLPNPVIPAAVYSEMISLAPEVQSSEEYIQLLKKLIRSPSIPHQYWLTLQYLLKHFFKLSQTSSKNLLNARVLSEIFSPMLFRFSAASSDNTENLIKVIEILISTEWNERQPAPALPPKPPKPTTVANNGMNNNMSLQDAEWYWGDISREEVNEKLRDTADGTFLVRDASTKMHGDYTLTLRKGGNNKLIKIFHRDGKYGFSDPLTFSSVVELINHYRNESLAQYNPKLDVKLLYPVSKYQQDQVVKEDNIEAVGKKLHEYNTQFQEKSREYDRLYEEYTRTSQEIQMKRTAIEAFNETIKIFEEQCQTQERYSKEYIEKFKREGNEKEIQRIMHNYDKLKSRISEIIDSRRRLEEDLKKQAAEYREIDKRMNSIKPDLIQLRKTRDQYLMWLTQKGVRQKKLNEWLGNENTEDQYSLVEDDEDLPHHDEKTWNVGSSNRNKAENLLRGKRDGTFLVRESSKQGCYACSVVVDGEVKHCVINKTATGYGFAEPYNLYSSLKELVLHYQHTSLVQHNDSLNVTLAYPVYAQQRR

O=C(/C=C/c1ccc(CN(CCO)CCc2c[nH]c3ccccc23)cc1)NO [LAQ824]
IC50 (HDAC): 32 nM

Nc1ncnc2c1c(-c1cnc3[nH]ccc3c1)nn2C1CCCC1 [PP-121, 1-Cyclopentyl-3-(1H-pyrrolo[2,3-b]p-yridin-5-yl)-1H-pyrazolo[3,4-d]pyrimidin-4-amine]
IC50 (PDGFR): 2 nM

rituximab: agent combined with compound (1-1) in the synergy test
combination effect with compound (1-1) [1]: Synergy | Chou-Talalay combination index (CI), median [1]: 0.5 | Chou-Talalay combination index (CI), range [1]: 0.4-0.5

COc1cccc2c1C(=O)c1c(O)c3c(c(O)c1C2=O)C[C@@](O)(C(=O)CO)C[C@@H]3O[C@H]1C[C@H](N)[C@H](O)[C@H](C)O1 [doxorubicin, (7S,9S)-7-[(2R,4S,5S,6S)-4-amino-5-hydroxy-6-methyloxan-2-yl]oxy-6,9,11-trihydroxy-9-(2-hydroxyacetyl)-4-methoxy-8,10-dihydro-7H-tetracene-5,12-dione]
combination effect with compound (1-1) [1]: Additive effects | Chou-Talalay combination index (CI), median [1]: 0.83 | Chou-Talalay combination index (CI), range [1]: 0.7-0.96

C=CC(=O)N1CCC[C@@H](n2nc(-c3ccc(Oc4ccccc4)cc3)c3c(N)ncnc32)C1 [ibrutinib]
combination effect with compound (1-1) [1]: Synergy | Chou-Talalay combination index (CI), median ([1]; in ABC-DLBCL): 0.04 | Chou-Talalay combination index (CI), range ([1]; in ABC-DLBCL): 0.02-0.1

CC1=C(/C=C/C(C)=C/C=C/C(C)=C/C(=O)O)C(C)(C)CCC1 [all-trans retinoic acid]
combination effect with compound (1-1) [1]: Synergy

COc1ccc(-c2ccc3ncc4c(c3c2)n(-c2ccc(N3CCNCC3)c(C(F)(F)F)c2)c(=O)n4C)cn1 [NVP-BGT226]
IC50 (PI3K/mTOR): 1 nM

CC(C)[C@H](C(=O)Nc1ccc(C(=O)NO)cc1)c1ccccc1 [AR-42]
IC50 (HDAC): 30 nM

Nc1cccc2c1CN(C1CCC(=O)NC1=O)C2=O (centres unmarked) [lenalidomide]
combination effect with compound (1-1) [1]: Synergy | Chou-Talalay combination index (CI), median [1]: 0.7

O=C(CCCCCCC(=O)Nc1ccccc1)NO [Vorinostat, suberoylanilide hydroxamic acid]
combination effect with compound (1-1) [1]: Synergy | Chou-Talalay combination index (CI), median [1]: 0.5 | Chou-Talalay combination index (CI), range [1]: 0.3-0.6

Cn1c(CCCC(=O)O)nc2cc(N(CCCl)CCCl)ccc21 [bendamustine, 4-[5-[Bis(2-chloroethyl)amino]-1-methylbenzimidazol-2-yl]butanoic acid]
combination effect with compound (1-1) [1]: Additive effects

COc1ccc(COc2cc3oc(=O)c4cc(C(C)O)ccc4c3cc2OC)cc1 (centres unmarked) [Palomid 529]
effect on phosphorylation of pAktS473, pGSK3βS9, pS6, pMAPK, pAktT308 [2]: both the mTORCl and mTORC2 complexes, reduces phosphorylation of pAktS473, pGSK3βS9, and pS6 but neither pMAPK nor pAktT308. Phase 1.

CO[C@H]1C[C@@H]2CC[C@@H](C)[C@@](O)(O2)C(=O)C(=O)N2CCCC[C@H]2C(=O)O[C@H]([C@H](C)C[C@@H]2CC[C@@H](OCCO)[C@H](OC)C2)CC(=O)[C@H](C)/C=C(\C)[C@@H](O)[C@@H](OC)C(=O)[C@H](C)C[C@H](C)/C=C/C=C/C=C/1C [Everolimus]
IC50 (FKBP12): 1.6 to 2.4 nM | combination effect with compound (1-1) [1]: Synergy | Chou-Talalay combination index (CI), median [1]: 0.1 | Chou-Talalay combination index (CI), range [1]: 0.1-0.2

CN(C)c1ccc(C(=O)NCCCCCCC(=O)NO)cc1 [Compound M344]
IC50 (HDAC): 100 nM

CCCCc1nc2cc(/C=C/C(=O)NO)ccc2n1CCN(CC)CC [SB939]
IC50 (HDAC): 40 to 140 nM

Cn1c(/C=C/C(=O)NO)ccc1/C=C/C(=O)c1cccc(F)c1 [MC1568]
IC50 (HDAC): 200 nM

CCN(CC)Cc1ccc2cc(COC(=O)Nc3ccc(C(=O)NO)cc3)ccc2c1 [ITF2357]
IC50 (HDAC): 7.5 to 16 nM

COc1ccc(-c2cc3c(C)nc(N)nc3n([C@H]3CC[C@H](OCCO)CC3)c2=O)cn1 [PF-04691502]
IC50 [3]: 3.8 nM | IC50 [4]: 7.5 nM

C/C(O)=C(\C#N)C(=O)Nc1cc(Br)ccc1Br
IC50 (JAK-1): > 300000 nM | IC50 (SYK): > 300000 nM | IC50 (IR kinase): > 300000 nM | IC50 (JAK-2): > 300000 nM | IC50 (Hck): > 300000 nM | IC50 (JAK-3): > 300000 nM | IC50 (EGFR kinase): > 300000 nM

CCCC(CCC)C(=O)O [Valproic acid sodium salt]
IC50 (HDAC): 400000 nM

GSK2126458
Ki (PI3Kγ (p110γ)): 0.024 nM | Ki (PI3Kβ (p110β)): 0.13 nM

CC[C@H](Nc1ncnc2[nH]cnc12)c1nc2cccc(F)c2c(=O)n1-c1ccccc1 [idelalisib]
combination effect with compound (1-1) [1]: Synergy | Chou-Talalay combination index (CI), median [1]: 0.5 | Chou-Talalay combination index (CI), range [1]: 0.04-2.4
